Experimental data as given in PubChem BioAssay (NCI).
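Cells were grown in 96-well plates and exposed to each compound for 48 hours at five concentrations; endpoints were interpolated linearly between bracketing concentrations, or set to the highest concentration if not reached. The concentration for 50% growth inhibition is given as GI50. The concentration for full growth arrest is given as TGI.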

How the values were obtained:
Experiment in all cases: DTP human tumour cell line panel, 48 h
K-562 leukemia = system: K-562 leukemia
MALME-3M melanoma = system: MALME-3M melanoma
OVCAR-3 ovarian = system: OVCAR-3 ovarian
HS 578T breast = system: HS 578T breast
NCI-H226 lung = system: NCI-H226 lung
NCI-H23 lung = system: NCI-H23 lung
SR leukemia = system: SR leukemia
786-0 renal = system: 786-0 renal
SN12C renal = system: SN12C renal
HL-60(TB) leukemia = system: HL-60(TB) leukemia
MDA-MB-435 = system: MDA-MB-435
MOLT-4 leukemia = system: MOLT-4 leukemia
T-47D breast = system: T-47D breast
UACC-62 melanoma = system: UACC-62 melanoma
HCC-2998 colon = system: HCC-2998 colon
OVCAR-4 ovarian = system: OVCAR-4 ovarian
HOP-92 NSCLC = system: HOP-92 NSCLC
SF-539 CNS = system: SF-539 CNS
NCI/ADR-RES ovarian = system: NCI/ADR-RES ovarian
HT29 colon = system: HT29 colon
A498 renal = system: A498 renal
RPMI-8226 leukemia = system: RPMI-8226 leukemia
DU-145 prostate = system: DU-145 prostate
MCF7 breast = system: MCF7 breast
BT-549 breast = system: BT-549 breast
SNB-75 CNS = system: SNB-75 CNS
UACC-257 melanoma = system: UACC-257 melanoma
NCI-H522 lung = system: NCI-H522 lung
SF-295 CNS = system: SF-295 CNS
U251 CNS = system: U251 CNS
ACHN renal = system: ACHN renal
RXF 393 renal = system: RXF 393 renal
IGROV1 ovarian = system: IGROV1 ovarian
HCT-116 colon = system: HCT-116 colon
NCI-H460 lung = system: NCI-H460 lung
KM12 colon = system: KM12 colon
COLO 205 colon = system: COLO 205 colon
HOP-62 NSCLC = system: HOP-62 NSCLC
CAKI-1 renal = system: CAKI-1 renal
M14 melanoma = system: M14 melanoma
SK-OV-3 ovarian = system: SK-OV-3 ovarian
SK-MEL-2 melanoma = system: SK-MEL-2 melanoma
SF-268 CNS = system: SF-268 CNS
TK-10 renal = system: TK-10 renal
SK-MEL-5 melanoma = system: SK-MEL-5 melanoma
LOX IMVI melanoma = system: LOX IMVI melanoma
UO-31 renal = system: UO-31 renal
SW-620 colon = system: SW-620 colon
EKVX NSCLC = system: EKVX NSCLC
MDA-MB-231 breast = system: MDA-MB-231 breast
PC-3 prostate = system: PC-3 prostate
OVCAR-8 ovarian = system: OVCAR-8 ovarian
SNB-19 CNS = system: SNB-19 CNS
HCT-15 colon = system: HCT-15 colon
OVCAR-5 ovarian = system: OVCAR-5 ovarian
A549 NSCLC = system: A549 NSCLC
CCRF-CEM leukemia = system: CCRF-CEM leukemia
SK-MEL-28 melanoma = system: SK-MEL-28 melanoma

Compound: COc1cc2nc3cc([N+](=O)[O-])ccc3c(NCCCNCC(C)(C)O)c2cc1OC
- GI50 (K-562 leukemia): 299 nM
- TGI (K-562 leukemia): 1680 nM
- GI50 (MALME-3M melanoma): 315 nM
- TGI (MALME-3M melanoma): 872 nM
- GI50 (OVCAR-3 ovarian): 330 nM
- TGI (OVCAR-3 ovarian): 1030 nM
- GI50 (HS 578T breast): 511 nM
- TGI (HS 578T breast): 5390 nM
- GI50 (NCI-H226 lung): 771 nM
- TGI (NCI-H226 lung): 2890 nM
- GI50 (NCI-H23 lung): 196 nM
- TGI (NCI-H23 lung): 543 nM
- GI50 (SR leukemia): 321 nM
- TGI (SR leukemia): 3060 nM
- GI50 (786-0 renal): 277 nM
- TGI (786-0 renal): 1220 nM
- GI50 (SN12C renal): 232 nM
- TGI (SN12C renal): 1110 nM
- GI50 (HL-60(TB) leukemia): 694 nM
- TGI (HL-60(TB) leukemia): 2950 nM
- GI50 (MDA-MB-435): 400 nM
- TGI (MDA-MB-435): 1550 nM
- GI50 (MOLT-4 leukemia): 372 nM
- TGI (MOLT-4 leukemia): 6670 nM
- GI50 (T-47D breast): 237 nM
- TGI (T-47D breast): 756 nM
- GI50 (UACC-62 melanoma): 214 nM
- TGI (UACC-62 melanoma): 580 nM
- GI50 (HCC-2998 colon): 233 nM
- TGI (HCC-2998 colon): 620 nM
- GI50 (OVCAR-4 ovarian): 198 nM
- TGI (OVCAR-4 ovarian): 777 nM
- GI50 (HOP-92 NSCLC): 225 nM
- TGI (HOP-92 NSCLC): 726 nM
- GI50 (SF-539 CNS): 505 nM
- TGI (SF-539 CNS): 2580 nM
- GI50 (NCI/ADR-RES ovarian): 10500 nM
- TGI (NCI/ADR-RES ovarian): 25300 nM
- GI50 (HT29 colon): 212 nM
- TGI (HT29 colon): 586 nM
- GI50 (A498 renal): 216 nM
- TGI (A498 renal): 1330 nM
- GI50 (RPMI-8226 leukemia): 565 nM
- TGI (RPMI-8226 leukemia): 4010 nM
- GI50 (DU-145 prostate): 324 nM
- TGI (DU-145 prostate): 1110 nM
- GI50 (MCF7 breast): 208 nM
- TGI (MCF7 breast): 1160 nM
- GI50 (BT-549 breast): 1750 nM
- TGI (BT-549 breast): 3320 nM
- GI50 (SNB-75 CNS): 300 nM
- TGI (SNB-75 CNS): 1610 nM
- GI50 (UACC-257 melanoma): 1620 nM
- TGI (UACC-257 melanoma): 3100 nM
- GI50 (NCI-H522 lung): 181 nM
- TGI (NCI-H522 lung): 425 nM
- GI50 (SF-295 CNS): 501 nM
- TGI (SF-295 CNS): 2430 nM
- GI50 (U251 CNS): 303 nM
- TGI (U251 CNS): 1010 nM
- GI50 (ACHN renal): 576 nM
- TGI (ACHN renal): 6070 nM
- GI50 (RXF 393 renal): 297 nM
- TGI (RXF 393 renal): 1240 nM
- GI50 (IGROV1 ovarian): 350 nM
- TGI (IGROV1 ovarian): 1300 nM
- GI50 (HCT-116 colon): 299 nM
- TGI (HCT-116 colon): 1040 nM
- GI50 (NCI-H460 lung): 299 nM
- TGI (NCI-H460 lung): 1040 nM
- GI50 (KM12 colon): 410 nM
- TGI (KM12 colon): 1600 nM
- GI50 (COLO 205 colon): 176 nM
- TGI (COLO 205 colon): 442 nM
- GI50 (HOP-62 NSCLC): 169 nM
- TGI (HOP-62 NSCLC): 708 nM
- GI50 (CAKI-1 renal): 1950 nM
- TGI (CAKI-1 renal): 10200 nM
- GI50 (M14 melanoma): 352 nM
- TGI (M14 melanoma): 1500 nM
- GI50 (SK-OV-3 ovarian): 506 nM
- TGI (SK-OV-3 ovarian): 2590 nM
- GI50 (SK-MEL-2 melanoma): 234 nM
- TGI (SK-MEL-2 melanoma): 518 nM
- GI50 (SF-268 CNS): 308 nM
- TGI (SF-268 CNS): 1260 nM
- GI50 (TK-10 renal): 500 nM
- TGI (TK-10 renal): 2490 nM
- GI50 (SK-MEL-5 melanoma): 520 nM
- TGI (SK-MEL-5 melanoma): 1760 nM
- GI50 (LOX IMVI melanoma): 208 nM
- TGI (LOX IMVI melanoma): 485 nM
- GI50 (UO-31 renal): 1460 nM
- TGI (UO-31 renal): 5140 nM
- GI50 (SW-620 colon): 301 nM
- TGI (SW-620 colon): 1510 nM
- GI50 (EKVX NSCLC): 1210 nM
- TGI (EKVX NSCLC): 3970 nM
- GI50 (MDA-MB-231 breast): 222 nM
- TGI (MDA-MB-231 breast): 900 nM
- GI50 (PC-3 prostate): 322 nM
- TGI (PC-3 prostate): 1110 nM
- GI50 (OVCAR-8 ovarian): 304 nM
- TGI (OVCAR-8 ovarian): 1820 nM
- GI50 (SNB-19 CNS): 303 nM
- TGI (SNB-19 CNS): 1410 nM
- GI50 (HCT-15 colon): 1300 nM
- TGI (HCT-15 colon): 8290 nM
- GI50 (OVCAR-5 ovarian): 465 nM
- TGI (OVCAR-5 ovarian): 3390 nM
- GI50 (A549 NSCLC): 320 nM
- TGI (A549 NSCLC): 1170 nM
- GI50 (CCRF-CEM leukemia): 502 nM
- TGI (CCRF-CEM leukemia): 3980 nM
- GI50 (SK-MEL-28 melanoma): 839 nM
- TGI (SK-MEL-28 melanoma): 2500 nM
